Reference: patent publication US7786088B2, “Targeting vector to the urokinase plasminogen activator receptor” (University of Iowa Research Foundation, priority 2000, dated 2010)

What was measured:
CF airway epithelia = experiment: cAMP-stimulated short-circuit current after Ad2/CFTR-16:CaPi gene transfer; format: cell-based, human; conditions: FIG. 5C; for correction of Cl− channel defect (cAMP-stimulated current): CF airway epithelia, Ad2/CFTR-16 in CaPi coprecipitate
Method: C. Measurement of Transepithelial Electrical Properties: Epithelia were mounted in modified Ussing chambers (Jim's Instruments, Iowa City, Iowa) and bathed with Ringer's solution on their submucosal side (135 mM NaCl, 2.4 K2HPO4, 0.6 mM […], 1.2 mM CaCl2, 1.2 mM MgCl2, 5 mM Hepes, pH 7.4 and 10 mM dextrose). The mucosal surface was bathed in the identical solution, except that 135 mM NaGluconate replaced the 135 mM NaCl. In this way, a transepithelial Cl^− concentration gradient was established in order to magnify changes in Cl^− transport. The transepithelial Na^+ transport was blocked with mucosal amiloride (10 μM). Mucosal DIDS (100 μM) blocked non-CFTR Cl^− transport. The cAMP agonists, forskolin (10 μM) and IBMX (100 μM) were applied to both solutions to stimulate transepithelial Cl^− transport via CFTR.
The ability of uPA to enhance gene transfer and expression of CFTR in differentiated CF airway epithelia was also tested.

human airway epithelia [1] = experiment: tight junction integrity measured by transepithelial resistance; conditions: following uPA or u7 treatment
Method: D. uPA Enhancement of Gene Transfer: The ability of uPA to enhance gene transfer by nonspecifically bound vector was tested.

human airway epithelia [2] = experiment: fluid phase endocytosis, uptake of Texas Red dextran; format: cell-based; conditions: 0.15 μM peptide applied to apical surface, FIG. 4
Method: B. Assay for Fluid Phase Endocytosis: Cells were chilled on ice for 15 minutes and then incubated with […] uPA or 0.15 μM u7-peptide (SEQ ID NO:1) added to the apical surface for 30 minutes at 4° C. Following 3 washes in PBS, cells were incubated with 0.5 mg/ml Texas Red-labeled fixable dextran (3,000 MW, Molecular Probes, Eugene, Oreg.) for 10 minutes at 37° C. Following 3 washes in PBS, cells were fixed with 4% paraformaldehyde, mounted onto class slides with Vectashield (Vector Laboratories, Inc., Burlingame, Calif.), and viewed by fluorescence microscopy. Control cells were incubated with Texas Red-labeled dextran alone to measure basal levels of endocytosis. Monkey tracheal explants were assayed as described for primary cell cultures. To evaluate time-dependent changes, cells were treated as described above with uPA (50 nM) followed by incubations in Texas Red dextran for 5, 10, 30 or 60 minutes at 37° C. […]
B. Effect of uPA on Fluid Phase Endocytosis in Human Airway Epithelia: Stimulation of endocytosis by uPA was determined by measuring the uptake of Texas Red-conjugated dextran, a fluid phase marker. […]

human airway epithelia [3] = experiment: gene transfer by adenovirus:CaPi coprecipitate (β-galactosidase activity); format: cell-based
Method: B. Evaluation of Gene Transfer: The apical surface of human airway epithelia was washed once with PBS. Adenovirus was applied at a multiplicity of infection (MOI) of 50 to the apical surface for 30 minutes at 37° C. Adenovirus was applied either alone or in a CaPi coprecipitate as previously described by Fasbender et al., J. Clin. Invest. 102:184-193 (1998) and Lee et al., Hum. Gene Ther. 10:603-13 (1999) (incorporated herein by reference). Following 3 washes, cells were returned to the incubator and assayed for gene transfer 48 hours later. AAV2 was applied at an MOI<1 to the apical surface for 30 minutes at 37° C. AAV2 was applied either alone or on a CaPi coprecipitate formed as previously described by Fasbender et al. and Lee et al. for adenovirus. Following 3 washes, cells were returned to the incubator and assayed for gene transfer 14 days later. Total β-galactosidase activity was measured using a commercially available technique (Galacto-Light, Topix, Bedford, Mass.).

“CLNGGTC (listed as Homo sapiens) [u7-peptide, seven residue peptide comprising amino acids 13-19 of uPA]” was tested, and the “correction of Cl− channel defect (cAMP-stimulated current)” value (CF airway epithelia) was “further enhanced the correction”, the “correction of Cl− channel defect (cAMP-stimulated current)” value (CF airway epithelia; listed as u7 peptide) was “to a greater extent than the full length uPA” and the “uptake of a vector expressing CFTR” value (CF airway epithelia; cystic fibrosis (CF) airway epithelia) was “enhanced the uptake”. For the same substance, the transepithelial resistance (human airway epithelia [1]) was “did not change”, the “stimulation of fluid phase endocytosis” value (human airway epithelia [2]) was “stimulated fluid phase endocytosis” and the “increase in gene transfer compared to the coprecipitate alone” value (human airway epithelia [3]; apical application before CaPi:adenovirus coprecipitates (uPA 50 nM), assayed 48 hours later, FIG. 5A) was 8-10 fold. For the same substance, the “effect on gene transfer by CaPi coprecipitate (in words)” value (human airway epithelia [3]; compared with uPA) was “effect similar to uPA”.
“CTCGNCL [scrambled peptide, reference compound]” was tested, and the “stimulation of fluid phase endocytosis” value (human airway epithelia [2]) was “did not”.
